Test results from patent US11673898B2, “Substituted inhibitors of menin-MLL and methods of use” (Kura Oncology, Inc., priority 2016, dated 2023).

Molecular target: T1, Menin MLL 4-43 (Homo sapiens, UniProt O00255)
T1 sequence (O00255 1-610): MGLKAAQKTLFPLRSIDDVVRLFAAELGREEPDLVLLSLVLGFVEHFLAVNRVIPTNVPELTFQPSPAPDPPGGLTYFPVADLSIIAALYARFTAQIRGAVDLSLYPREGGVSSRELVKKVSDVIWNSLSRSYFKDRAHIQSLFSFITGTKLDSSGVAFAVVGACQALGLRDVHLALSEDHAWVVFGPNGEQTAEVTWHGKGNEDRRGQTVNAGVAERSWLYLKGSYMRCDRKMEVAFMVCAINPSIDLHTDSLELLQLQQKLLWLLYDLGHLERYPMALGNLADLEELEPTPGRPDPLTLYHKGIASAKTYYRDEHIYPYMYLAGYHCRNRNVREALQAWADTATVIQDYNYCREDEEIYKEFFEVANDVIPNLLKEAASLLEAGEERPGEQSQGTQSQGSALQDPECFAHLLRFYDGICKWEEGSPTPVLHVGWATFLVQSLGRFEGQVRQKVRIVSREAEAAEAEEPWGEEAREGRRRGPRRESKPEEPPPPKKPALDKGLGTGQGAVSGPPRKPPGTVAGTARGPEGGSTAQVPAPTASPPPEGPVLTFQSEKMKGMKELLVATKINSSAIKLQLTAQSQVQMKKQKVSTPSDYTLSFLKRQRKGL
Test: Fluorescence polarization (FP) competition assay of the menin-MLL interaction
Assay type: binding
Conditions: fluorescence polarization assay; read-out: Menin MLL 4-43 IC50

| SMILES | IC50 [µM] |
| --- | --- |
| C=CC(=O)Nc1ccc(C(Cn2c(C#N)cc3c(C)c(CN4CCC(Nc5ncnc6sc(CC(F)(F)F)cc56)CC4)ccc32)OC)cc1 (stereo not shown) [Compound 1] | 0.02 to 1 |
| Cc1c(CN2CCC(Nc3ncnc4sc(CC(F)(F)F)cc34)CC2)ccc2c1cc(C#N)n2CC(C)N1CCN(S(C)(=O)=O)CC1 (stereo not shown) [Compound 2] | 0.05 to 0.25 |
| Cc1c(CN2CCC(Nc3ncnc4sc(CC(F)(F)F)cc34)CC2)ccc2c1cc(C#N)n2CC(C)N1CCN(S(C)(=O)=O)CC1 (stereo not shown) [Compound 3] | 0.02 to 1 |
| CCS(=O)(=O)N1CCN(C(C)Cn2c(C#N)cc3c(C)c(CN4CCC(Nc5ncnc6sc(CC(F)(F)F)cc56)CC4)ccc32)CC1 (stereo not shown) [Compound 4] | 0.05 to 0.25 |
| CC(=O)N1CCN(C(C)Cn2c(C#N)cc3c(C)c(CN4CCC(Nc5ncnc6sc(CC(F)(F)F)cc56)CC4)ccc32)CC1 (stereo not shown) [Compound 5] | 0.05 to 0.25 |
| Cc1c(CN2CCC(Nc3ncnc4sc(CC(F)(F)F)cc34)CC2)ccc2c1cc(C#N)n2CC(C)N1CCN(C=O)CC1 (stereo not shown) [Compound 6] | < 0.05 |
| Cc1c(CN2CCC(Nc3ncnc4sc(CC(F)(F)F)cc34)CC2)ccc2c1cc(C#N)n2CC(C)N1CCN(S(N)(=O)=O)CC1 (stereo not shown) [Compound 7] | 0.05 to 0.25 |
| CNS(=O)(=O)N1CCN(C(C)Cn2c(C#N)cc3c(C)c(CN4CCC(Nc5ncnc6sc(CC(F)(F)F)cc56)CC4)ccc32)CC1 (stereo not shown) [Compound 8] | < 0.05 |
| Cc1c(CN2CCC(Nc3ncnc4sc(CC(F)(F)F)cc34)CC2)ccc2c1cc(C#N)n2CC(C)N1CCN(S(C)(=O)=O)C(C)C1 (stereo not shown) [Compound 11] | 0.05 to 0.25 |
| Cc1c(CN2CCC(Nc3ncnc4sc(CC(F)(F)F)cc34)CC2)ccc2c1cc(C#N)n2CC(C)N1C[C@@H](C)N(S(C)(=O)=O)[C@@H](C)C1 (stereo partly shown) [Compound 12] | < 0.05 |
| Cc1c(CN2CCC(Nc3ncnc4sc(CC(F)(F)F)cc34)CC2)ccc2c1cc(C#N)n2CC(C)N1CCN(S(C)(=O)=O)[C@@H](C)C1 (stereo partly shown) [Compound 13] | < 0.05 |
| Cc1c(CN2CCC(Nc3ncnc4sc(CC(F)(F)F)cc34)CC2)ccc2c1cc(C#N)n2CC(C)N1CCN(S(C)(=O)=O)[C@H](C)C1 (stereo partly shown) [Compound 14] | < 0.05 |
| CCC(Cn1c(C#N)cc2c(C)c(CN3CCC(Nc4ncnc5sc(CC(F)(F)F)cc45)CC3)ccc21)N1CCN(S(C)(=O)=O)CC1 (stereo not shown) [Compound 15] | > 1 |
| Cc1c(CN2CCC(Nc3ncnc4sc(CC(F)(F)F)cc34)CC2)ccc2c1cc(C#N)n2CC(C)(C)N1CCN(S(C)(=O)=O)CC1 [Compound 16] | > 1 |
| Cc1c(CN2CCC(Nc3ncnc4sc(CC(F)(F)F)cc34)CC2)ccc2c1cc(C#N)n2C[C@@H](C)N1CCN(S(C)(=O)=O)[C@@H](C)C1 [Compound 17] | 0.05 to 0.25 |
| Cc1c(CN2CCC(Nc3ncnc4sc(CC(F)(F)F)cc34)CC2)ccc2c1cc(C#N)n2C[C@H](C)N1CCN(S(C)(=O)=O)[C@@H](C)C1 [Compound 18] | < 0.05 |
| Cc1c(CN2CCC(Nc3ncnc4sc(CC(F)(F)F)cc34)CC2)ccc2c1cc(C#N)n2C[C@H](C)N1CCN(S(C)(=O)=O)[C@H](C)C1 [Compound 19] | 0.05 to 0.25 |
| Cc1c(CN2CCC(Nc3ncnc4sc(CC(F)(F)F)cc34)CC2)ccc2c1cc(C#N)n2C[C@@H](C)N1CCN(S(C)(=O)=O)[C@H](C)C1 [Compound 20] | < 0.05 |
| Cc1c(CN2CCC(Nc3ncnc4sc(CC(F)(F)F)cc34)CC2)ccc2c1cc(C#N)n2CC(C)N1C[C@H](C)N(S(C)(=O)=O)[C@@H](C)C1 (stereo partly shown) [Compound 21] | 0.05 to 0.25 |
| Cc1c(CN2CCC(Nc3ncnc4sc(CC(F)(F)F)cc34)CC2)ccc2c1cc(C#N)n2CC(C)N1C[C@@H](C)N(S(C)(=O)=O)[C@H](C)C1 (stereo partly shown) [Compound 22] | < 0.05 |

| SMILES | IC50 [µM] |
| --- | --- |
| Cc1c(CN2CCC(Nc3ncnc4sc(CC(F)(F)F)cc34)CC2)ccc2c1cc(C#N)n2CC(C1CC1)N1CCN(S(C)(=O)=O)CC1 (stereo not shown) [Compound 23] | > 1 |
| Cc1c(CN2CCC(Nc3ncnc4sc(CC(F)(F)F)cc34)CC2)ccc2c1cc(C#N)n2CC(C(C)C)N1CCN(S(C)(=O)=O)CC1 (stereo not shown) [Compound 24] | 0.02 to 1 |
| Cc1c(CN2CCC(Nc3ncnc4sc(CC(F)(F)F)cc34)CC2)ccc2c1cc(C#N)n2CC(C)N1CCN(S(C)(=O)=O)C(C)(C)C1 (stereo not shown) [Compound 25] | 0.05 to 0.25 |
| CC[C@H]1CN(C(C)Cn2c(C#N)cc3c(C)c(CN4CCC(Nc5ncnc6sc(CC(F)(F)F)cc56)CC4)ccc32)CCN1S(C)(=O)=O (stereo partly shown) [Compound 26] | 0.02 to 1 |
| Cc1c(CN2CCC(Nc3ncnc4sc(CC(F)(F)F)cc34)CC2)ccc2c1cc(C#N)n2C(C)CN1CCN(S(C)(=O)=O)CC1 (stereo not shown) [Compound 27] | < 0.05 |
| Cc1c(CN2CCC(Nc3ncnc4sc(CC(F)(F)F)cc34)CC2)ccc2c1cc(C#N)n2CC(C)N1CC2CCC(C1)N2S(C)(=O)=O (stereo not shown) [Compound 28] | < 0.05 |
| CC[C@@H]1CN(C(C)Cn2c(C#N)cc3c(C)c(CN4CCC(Nc5ncnc6sc(CC(F)(F)F)cc56)CC4)ccc32)CCN1S(C)(=O)=O (stereo partly shown) [Compound 29] | 0.05 to 0.25 |
| Cc1c(CN2CCC(Nc3ncnc4sc(CC(F)(F)F)cc34)CC2)ccc2c1cc(C#N)n2CC(C)N1CC2CC(C1)N2S(C)(=O)=O (stereo not shown) [Compound 30] | 0.05 to 0.25 |
| Cc1c(CN2CCC(Nc3ncnc4sc(CC(F)(F)F)cc34)CC2)ccc2c1cc(C#N)n2CC(=O)N1CCN(S(C)(=O)=O)CC1 [Compound 35, 4-methyl-1-(2-(4-(methylsulfonyl)piperazin-1-yl)-2-oxoethyl)-5-((4-((6-(2,2,2-trifluoroethyl)thieno[2,3-d]pyrimidin-4-yl)amino)piperidin-1-yl)methyl)-1H-indole-2-carbonitrile] | > 1 |
| Cc1c(CN2CCC(Nc3ncnc4sc(CC(F)(F)F)cc34)CC2)ccc2c1cc(C#N)n2CCN1CCN(S(C)(=O)=O)C(C)C1 (stereo not shown) [Compound 43] | 0.05 to 0.25 |
| Cc1c(CN2CCC(Nc3ncnc4sc(CC(F)(F)F)cc34)CC2)ccc2c1cc(C#N)n2CCN1CC(C)N(S(C)(=O)=O)CC1C (stereo not shown) [Compound 44] | 0.02 to 1 |
| Cc1c(CN2CCC(Nc3ncnc4sc(CC(F)(F)F)cc34)CC2)ccc2c1cc(C#N)n2CCN1CCN(S(C)(=O)=O)CC1C (stereo not shown) [Compound 45] | 0.02 to 1 |
| Cc1c(CN2CCC(Nc3ncnc4sc(CC(F)(F)F)cc34)CC2)ccc2c1cc(C#N)n2CCN1C[C@@H](C)N(S(C)(=O)=O)[C@@H](C)C1 [Compound 46] | 0.05 to 0.25 |
| Cc1c(CN2CCC(Nc3ncnc4sc(CC(F)(F)F)cc34)CC2)ccc2c1cc(C#N)n2CCN1C(C)CN(S(C)(=O)=O)CC1C (stereo not shown) [Compound 47] | > 1 |
| Cc1c(CN2CCC(Nc3ncnc4sc(CC(F)(F)F)cc34)CC2)ccc2c1cc(C#N)n2CCN1C[C@@H](C)N(S(C)(=O)=O)[C@H](C)C1 [Compound 48] | 0.05 to 0.25 |
| Cc1c(CN2CCC(Nc3ncnc4sc(CC(F)(F)F)cc34)CC2)ccc2c1cc(C#N)n2CCN1C[C@H](C)N(S(C)(=O)=O)[C@@H](C)C1 [Compound 49] | 0.05 to 0.25 |
| Cc1c(CN2CCC(Nc3ncnc4sc(CC(F)(F)F)cc34)CC2)ccc2c1cc(C#N)n2CCN1CCC2(CC1)CCN(S(C)(=O)=O)C2 [Compound 52] | 0.02 to 1 |
| Cc1c(CN2CCC(Nc3ncnc4sc(CC(F)(F)F)cc34)CC2)ccc2c1cc(C#N)n2CCN1CCC2(CCN(S(C)(=O)=O)C2)C1 (stereo not shown) [Compound 53] | 0.02 to 1 |
| Cc1c(CN2CCC(Nc3ncnc4sc(CC(F)(F)F)cc34)CC2)ccc2c1cc(C#N)n2CCN1CCC2(CC1)CN(S(C)(=O)=O)C2 [Compound 54] | 0.05 to 0.25 |
| Cc1c(CN2CCC(Nc3ncnc4sc(CC(F)(F)F)cc34)CC2)ccc2c1cc(C#N)n2CCN1CC2CN(S(C)(=O)=O)CC2C1 (stereo not shown) [Compound 55] | 0.02 to 1 |
